Here are results for 1 molecule from patent US8114400B2, “Aza-bicyclic compounds and their use as stimulators of soluble guanylate cyclase” (Bayer Pharma Aktiengesellschaft, priority 2006, dated 2012).

For this assay, the system named is aorta rings. The assay is described as follows: Vasorelaxant effect in vitro (phenylephrine-contracted rabbit aorta rings). Further details: species or system Rabbits. The settings on record: Oryctolagus cuniculus, contraction induced by phenylephrine, 37° C., 0.1% DMSO, read-out: IC50 (concentration necessary to reduce the level of contraction by 50%). Here is the method: Rabbits are stunned by a blow to the back of the neck and are exsanguinated. The aorta is removed, freed of adherent tissue, divided into rings 1.5 mm wide and placed singly in 5 ml organ baths with carbogen-gassed Krebs-Henseleit solution of the following composition (in each case mM): NaCl: 119; KCl: 4.8; CaCl2×2H2O: 1; MgSO4×7H2O: 1.4; KH2PO4: 1.2; NaHCO3: 25; glucose: 10, under an initial tension at 37° C. The force of contraction is detected with Statham UC2 cells, amplified and digitized via A/D converters (DAS-1802 HC, Keithley Instruments Munich), and recorded in parallel on chart recorders. A contraction is induced by adding phenylephrine to the bath cumulatively in increasing concentration. After several control cycles, the substance to be investigated is added in each further run in increasing dosage each time, and the level of contraction is compared with the level of contraction achieved in the last preceding run. The concentration necessary to reduce the level of contraction by 50% (IC50) is calculated therefrom. The standard application volume is 5 μl, and the DMSO content in the bath solution corresponds to 0.1%.

In the case of `Nc1nc(N)nc(-c2nn(Cc3ccccc3F)c3nccn23)n1` [Example 1, 6-[1-(2-Fluorobenzyl)-1H-imidazo[2,1-c][1,2,4]triazol-3-yl]-1,3,5-triazine-2,4-diamine], the IC50 turned out to be 6.2 µM.
